Where “and” joins values, the source holds several entries; their conditions need not be identical. Equal values may be shown once.
What was measured:
calmodulin = calmodulin (Homo sapiens, UniProt P0DP23); experiment: Inhibition of calmodulin activity (method of Leung et al. 1984); type: biochemical
Experimental: The inhibition of calmodulin activity by A and B were measured using the method described by Leung et al. (1984) and the results are shown in Table 1.
In still another experiment, inhibition of calmodulin by the same cholesterol hydroperoxides was tested. The calmodulin inhibition was assayed as described by Leung et al. (J. Biol. Chem., 259:2742-2747, 1984).

[1] = system: acyl-Coenzyme-A:cholesterol acyltransferase (ACAT); experiment: Inhibition of ACAT in mouse liver microsomes (14C-oleoyl-Coenzyme A); type: biochemical; settings: 15 min pretreatment
Experimental: In another experiment, the inhibition of ⟦deleted by reissue: acrylCoenzyme-A:cholesterol ⟧ acyl-Coenzyme-A:cholesterol acyltransferase (ACAT) by cholesterol hydroperoxides, compounds A and B was used. Mouse liver microsomes (140 μg protein/assay) were treated with various concentrations of compounds A and B for 15 min prior to starting the assay by the addition of ^14C-oleoyl-Coenzyme A (41 μM, 0.068 μCi/assay). The reaction was carried on at 37° C. for exactly 5 min. then terminated by the addition of chloroform and methanol. The cellular lipids were extracted and separated by thin-layer chromatography.

[2] = system: mouse peritoneal macrophages; experiment: Esterification of cholesterol in mouse peritoneal macrophages (3H-oleate incorporation into cholesteryl ester); type: cell-based; settings: 15 min preincubation
Experimental: The effects of cholesterol hydroperoxides on the esterification of cholesterol in mouse peritoneal macrophages was tested as follows:
Monolayers of mouse peritoneal macrophages were pretreated with various concentration of ⟦deleted by reissue: 20-(S)-hydroperoxy-cholest-5-ene-3β,25-diol hydroxycholesterol (A) or 20-(R)-hydroperoxycholest-5-ene-3β,25 diol (B) ⟧ 20-(S)-20,25-dihydroperoxy-3β-hydroxycholest-5-ene-(A) or 20-(R)-20,25-dihydroperoxy-3β-hydroxycholest-5-ene (B) at 37° C. After 15 min preincubation, medium M199 providing 2.5% fetal calf serum, acetyl-LDL (25 μg protein/ml) and ^3H-oleate (0.25 μCi/ml) was added to the culture dishes. After 6 hr of incubation with 5% CO2 at 37° C. the cellular lipids were extracted. This layer chromatography was used to separate cholesteryl ester from other lipid classes before the radioactivity was determined. The activities reported have been corrected for losses during chromatography and elution of the thin-layer plates.

[3] = system: mouse peritoneal macrophages; experiment: Time course of incorporation of 3H-oleate into cholesterol esters by mouse peritoneal macrophages; type: cell-based; settings: for inhibition of 3H-oleate incorporation into cholesterol esters (in words): 50 μM compound A or 25 μM compound B
Experimental: In a further experiment, the time course of incorporation of ^3H-oleate into the same cholesterol esters by mouse peritoneal macrophages was studied. Mouse peritoneal macrophages were gorwn in M199 medium containing 2.5% fetal calf serum and acetyl-LDL (25 μg protein/ml) for 18 hr at 37° C. The medium was then replaced by M199 containing 2.5% fetal calf serum; ^3H-oleate with 50 μM compound A or 25 μM compound B or no hydroperoxide. At the time intervals indicated, the medium was aspirated and the cellular lipid was extracted and analyzed by thin-layer chromatography.

[4] = system: rabbits fed an atherogenic diet; settings: cited from earlier work
[5] = 0.01 μg compound preincubated with 0.3 units calmodulin, assay 30 C, 30 min
[6] = 0.1 μg compound preincubated with 0.3 units calmodulin, assay 30 C, 30 min
[7] = 1 μg compound preincubated with 0.3 units calmodulin, assay 30 C, 30 min
[8] = 2.5 μM, 5 min reaction at 37° C
[9] = 2.5 μM hydroperoxide, 6 hr incubation with acetyl-LDL and 3H-oleate
[10] = 5 μM hydroperoxide, 6 hr incubation
[11] = 10 μM hydroperoxide, 6 hr incubation
[12] = 25 μM hydroperoxide, 6 hr incubation
[13] = 50 μM hydroperoxide, 6 hr incubation
[14] = 75 μM hydroperoxide, 6 hr incubation
[15] = 100 μM hydroperoxide, 6 hr incubation
[16] = Table 1, Control + EDTA, amount not given
[17] = Table 9, EGTA, amount not given

| SMILES | % inhibition (calmodulin; [5]) | nmole P produced^i (calmodulin; [5]) | % inhibition (calmodulin; [6]) | nmole P produced^i (calmodulin; [6]) | % inhibition (calmodulin; [7]) | nmole P produced^i (calmodulin; [7]) | % inhibition (calmodulin; Table 9, 0.1 μg) | nmoles phosphate produced (calmodulin; Table 9, 0.1 μg) | % inhibition (calmodulin; Table 9, 1 μg) | nmoles phosphate produced (calmodulin; Table 9, 1 μg) | Counts per minute in cholesterol esters [1, 8] | Counts per minute in cholesterol esters ([1]; 5 μM, 5 min reaction) | Counts per minute in cholesterol esters ([1]; 10 μM, 5 min reaction) | Counts per minute in cholesterol esters ([1]; 16.7 μM, 5 min reaction) | Counts per minute in cholesterol esters ([1]; 25 μM, 5 min reaction) | Counts per minute in cholesterol esters ([1]; 33.3 μM, 5 min reaction) | Counts per minute in cholesterol esters ([1]; 50 μM, 5 min reaction) | Counts per minute in cholesterol esters ([1]; 100 μM, 5 min reaction) | Counts per min 3H incorporated into cholesteryl ester [2, 9] | Counts per min 3H incorporated into cholesteryl ester [2, 10] | other results |
| --- | --- | --- | --- | --- | --- | --- | --- | --- | --- | --- | --- | --- | --- | --- | --- | --- | --- | --- | --- | --- | --- |
| CC(C)(CCC[C@](C)(OO)[C@H]1CC[C@H]2[C@@H]3CC=C4C[C@@H](O)CC[C@]4(C)[C@H]3CC[C@@]21C)OO [Compound A, 20-(S)-20,25-dihydroperoxy-3β-hydroxycholest-5-ene] | 28% | 22.9 nmol | 68% | 16.1 nmol | 92% | 12.1 nmol | 68% | 16.1 nmol | 92% | 12.1 nmol | 4702 Counts per minute and 4651 Counts per minute | 4109 Counts per minute and 3420 Counts per minute | 3033 Counts per minute and 5422 Counts per minute | 1643 Counts per minute and 1206 Counts per minute | 1121 Counts per minute and 652 Counts per minute | 841 Counts per minute and 1141 Counts per minute | 632 Counts per minute and 573 Counts per minute | 304 Counts per minute and 297 Counts per minute | 55816 Counts per min and 47673 Counts per min | 59136 Counts per min | % inhibition (calmodulin; Table 9, 0.01 μg): 28%; nmoles phosphate produced (calmodulin; Table 9, 0.01 μg): 22.9 nmol; Counts per minute in cholesterol esters ([1]; 20 μM, 5 min reaction): 1652 Counts per minute and 1708 Counts per minute; Counts per min 3H incorporated into cholesteryl ester [2, 11]: 33700 Counts per min and 29618 Counts per min; Counts per min 3H incorporated into cholesteryl ester [2, 12]: 14510 Counts per min and 17621 Counts per min; Counts per min 3H incorporated into cholesteryl ester [2, 13]: 6059 Counts per min; Counts per min 3H incorporated into cholesteryl ester [2, 14]: 5074 Counts per min and 5047 Counts per min; Counts per min 3H incorporated into cholesteryl ester [2, 15]: 2830 Counts per min and 3970 Counts per min; inhibition of 3H-oleate incorporation into cholesterol esters (in words) ([3]; 5 min): apparent at the shortest time samples; Counts per minute in cholesterol ester ([3]; 50 μM compound A, 5 min): 2627 Counts per minute and 1994 Counts per minute; Counts per minute in cholesterol ester ([3]; 50 μM compound A, 10 min): 2462 Counts per minute and 3092 Counts per minute; Counts per minute in cholesterol ester ([3]; 50 μM compound A, 20 min): 5223 Counts per minute and 6049 Counts per minute; Counts per minute in cholesterol ester ([3]; 50 μM compound A, 30 min): 4007 Counts per minute and 2937 Counts per minute; Counts per minute in cholesterol ester ([3]; 50 μM compound A, 60 min): 4088 Counts per minute and 5295 Counts per minute; Counts per minute in cholesterol ester ([3]; 50 μM compound A, 120 min): 7269 Counts per minute and 10036 Counts per minute; Counts per minute in cholesterol ester ([3]; 50 μM compound A, 240 min): 19627 Counts per minute and 17564 Counts per minute |
| CC(C)(CCC[C@@](C)(OO)[C@H]1CC[C@H]2[C@@H]3CC=C4C[C@@H](O)CC[C@]4(C)[C@H]3CC[C@@]21C)OO [Compound B, 20-(R)-20,25-dihydroperoxy-3β-hydroxycholest-5-ene] | 4% | 26.9 nmol | 61% | 17.3 nmol | 81% | 13.8 nmol | 61% | 17.3 nmol | 81% | 13.8 nmol | 4557 Counts per minute and 3518 Counts per minute | 1786 Counts per minute and 2336 Counts per minute | 2499 Counts per minute and 1896 Counts per minute | 920 Counts per minute and 964 Counts per minute | 500 Counts per minute and 720 Counts per minute | 429 Counts per minute and 563 Counts per minute | 315 Counts per minute and 294 Counts per minute | 131 Counts per minute and 244 Counts per minute | 41574 Counts per min and 34918 Counts per min | 32751 Counts per min | % inhibition (calmodulin; Table 9, 0.001 μg): 4%; nmoles phosphate produced (calmodulin; Table 9, 0.001 μg): 26.9 nmol; Counts per min 3H incorporated into cholesteryl ester [2, 11]: 25140 Counts per min and 16252 Counts per min; Counts per min 3H incorporated into cholesteryl ester [2, 12]: 7752 Counts per min and 6232 Counts per min; Counts per min 3H incorporated into cholesteryl ester [2, 13]: 4073 Counts per min; Counts per min 3H incorporated into cholesteryl ester [2, 14]: 3177 Counts per min and 3385 Counts per min; Counts per min 3H incorporated into cholesteryl ester [2, 15]: 4427 Counts per min and 2401 Counts per min; Counts per minute in cholesterol ester ([3]; 25 μM compound B, 5 min): 2218 Counts per minute and 1256 Counts per minute; Counts per minute in cholesterol ester ([3]; 25 μM compound B, 10 min): 2560 Counts per minute and 2019 Counts per minute; Counts per minute in cholesterol ester ([3]; 25 μM compound B, 20 min): 3245 Counts per minute and 4788 Counts per minute; Counts per minute in cholesterol ester ([3]; 25 μM compound B, 30 min): 3202 Counts per minute and 2943 Counts per minute; Counts per minute in cholesterol ester ([3]; 25 μM compound B, 60 min): 5054 Counts per minute and 7341 Counts per minute; Counts per minute in cholesterol ester ([3]; 25 μM compound B, 120 min): 7534 Counts per minute and 9160 Counts per minute; Counts per minute in cholesterol ester ([3]; 25 μM compound B, 240 min): 18532 Counts per minute and 15819 Counts per minute; inhibition of 3H-oleate incorporation into cholesterol esters (in words) ([3]; 5 min): apparent at the shortest time samples |
| O=C(O)CN(CCN(CC(=O)O)CC(=O)O)CC(=O)O [EDTA, reference compound] |  |  |  |  |  |  |  |  |  |  |  |  |  |  |  |  |  |  |  |  | % inhibition (calmodulin; [16]): 100%; nmole P produced^i (calmodulin; [16]): 10.7 nmol |
| O=C(O)CN(CCOCCOCCN(CC(=O)O)CC(=O)O)CC(=O)O [EGTA, reference compound] |  |  |  |  |  |  |  |  |  |  |  |  |  |  |  |  |  |  |  |  | % inhibition (calmodulin; [17]): 100%; nmoles phosphate produced (calmodulin; [17]): 10.7 nmol |
| CN(C)CCCN1c2ccccc2Sc2ccc(Cl)cc21 [chlorpromazine] |  |  |  |  |  |  |  |  |  |  |  |  |  |  |  |  |  |  |  |  | blood cholesterol [4]: without lowering of blood cholesterol; development of atherosclerotic lesions [4]: reduced the development of such lesions |
